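Compound exposure: 48 hours, 5 concentrations, 96-well plates. GI50 = concentration required for 50% inhibition of growth.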 Active and inactive are the calls of the source. Rule as the data show it: active = GI50 up to about 1.1 µM and inactive = higher.
Key:
Experiment in all cases: NCI-60 cell line screen, 48 h
[1] = tested on: LOX IMVI
[2] = tested on: 786-0
[3] = tested on: EKVX
[4] = tested on: CCRF-CEM
[5] = tested on: SNB-75
[6] = tested on: SK-OV-3
[7] = tested on: MDA-MB-231
[8] = tested on: UACC-257
[9] = tested on: IGROV-1
[10] = tested on: NCI/ADR-RES
[11] = tested on: NCI-H460
[12] = tested on: CAKI-1
[13] = tested on: HCT-15
[14] = tested on: A549
[15] = tested on: MCF7
[16] = tested on: HL-60
[17] = tested on: OVCAR-8
[18] = tested on: M14
[19] = tested on: SR
[20] = tested on: UACC-62

Compound | GI50 [1] | GI50 [2] | GI50 [3] | GI50 [4] | GI50 [5] | GI50 [6] | GI50 [7] | GI50 [8] | GI50 [9] | GI50 [10] | GI50 [11] | GI50 [12] | GI50 [13] | GI50 [14] | GI50 [15] | GI50 [16] | GI50 [17] | GI50 [18] | GI50 [19] | GI50 [20]
O=[N+]([O-])c1cccc2nc3ccccc3c(NCCCCCNc3c4ccccc4nc4cccc([N+](=O)[O-])c34)c12 | 0.168 µM (active) | 0.0157 µM (active) | 0.133 µM (active) | 0.0518 µM (active) | 0.197 µM (active) | 0.19 µM (active) | 0.0269 µM (active) | 0.139 µM (active) | 0.202 µM (active) | 0.168 µM (active) | 0.0296 µM (active) | 0.0476 µM (active) | 0.0171 µM | 0.0366 µM (active) | 0.0161 µM (active) | 0.00745 µM (active) | 0.0492 µM (active) | 0.0607 µM (active) | 0.00271 µM (active) | 0.153 µM (active)
O=c1[nH]c2cc([N+](=O)[O-])c(Nc3c4ccccc4nc4ccccc34)c([N+](=O)[O-])c2[nH]1 | 2.37 µM (inactive) | 2.39 µM (inactive) | 2.47 µM (inactive) | 4.42 µM (inactive) | 3.68 µM (inactive) | 4.04 µM (inactive) | 3.21 µM (inactive) | 4.03 µM (inactive) | 0.238 µM (active) | 2.41 µM (inactive) | 2.36 µM (inactive) | 2.19 µM (inactive) | 2.58 µM | 2.69 µM (inactive) | 2.59 µM (inactive) | 3.1 µM (inactive) | 2.43 µM (inactive) | 2.12 µM (inactive) | 1.74 µM (inactive) | 1.6 µM (inactive)
CC(C)(C)NCCC(O)c1cc(C(F)(F)F)nc2c(C(F)(F)F)cccc12 (configuration not stated) | 1.12 µM (inactive) | 6.98 µM (inactive) | 14 µM (inactive) | 5.57 µM (inactive) | 11.1 µM (inactive) | 16.2 µM (inactive) | 9.4 µM (inactive) | 13.5 µM (inactive) | 10.3 µM (inactive) | 5.97 µM (inactive) | 4.83 µM (inactive) | 4.25 µM (inactive) | 6.41 µM | 4.38 µM (inactive) | 12.6 µM (inactive) | 6.37 µM (inactive) | 7.53 µM (inactive) | 7.83 µM (inactive) | 3.62 µM (inactive) | 12.6 µM (inactive)
O=c1[nH]c2[nH]c(-c3ccc(Br)cc3)cc2c2ccccc12 | > 10 µM (inactive) | 35.6 µM (inactive) | 5.58 µM (inactive) | – | 19.4 µM (inactive) | – | 15 µM (inactive) | > 100 µM (inactive) | > 100 µM (inactive) | 50.1 µM (inactive) | > 100 µM (inactive) | 61.1 µM (inactive) | > 100 µM | – | > 100 µM (inactive) | 13.5 µM (inactive) | 23.3 µM (inactive) | – | 11.3 µM (inactive) | > 100 µM (inactive)
Cc1ccc([C@H]2CC(=O)C[C@H](c3ccc(C)cc3)C23C(=O)c2ccccc2C3=O)cc1 | 9.98 µM (inactive) | 17.1 µM (inactive) | > 100 µM (inactive) | 14 µM (inactive) | 15.8 µM (inactive) | 31.6 µM (inactive) | 54.7 µM (inactive) | 15.4 µM (inactive) | 40 µM (inactive) | 10.1 µM (inactive) | 47.2 µM (inactive) | 68.2 µM (inactive) | 34.8 µM | 43.2 µM (inactive) | 17 µM (inactive) | 11 µM (inactive) | 31 µM (inactive) | 27.8 µM (inactive) | 13.2 µM (inactive) | 37.7 µM (inactive)
O=C1/C(=C/c2ccc(Cl)cc2)CCC1CNc1ccc(Cl)cc1 (configuration not stated) | 0.673 µM (active) | 2.26 µM (inactive) | 10.7 µM (inactive) | 0.828 µM (active) | 32.3 µM (inactive) | – | 6.7 µM (inactive) | 13.8 µM (inactive) | 6.12 µM (inactive) | 26.2 µM (inactive) | 7.96 µM (inactive) | 7.55 µM (inactive) | 2.37 µM | 7.8 µM (inactive) | 1.29 µM (inactive) | 0.703 µM (active) | 2.42 µM (inactive) | 2.37 µM (inactive) | 2.23 µM (inactive) | 0.41 µM (active)
NC(Cc1cc(Br)c(O)c(Br)c1)C(=O)O (configuration not stated) | > 100 µM (inactive) | > 100 µM (inactive) | > 100 µM (inactive) | > 100 µM (inactive) | > 100 µM (inactive) | > 100 µM (inactive) | > 100 µM (inactive) | > 100 µM (inactive) | > 100 µM (inactive) | > 100 µM (inactive) | > 100 µM (inactive) | > 100 µM (inactive) | > 100 µM | > 100 µM (inactive) | > 100 µM (inactive) | > 100 µM (inactive) | > 100 µM (inactive) | > 100 µM (inactive) | > 100 µM (inactive) | > 100 µM (inactive)
S=c1nc(N/N=C/c2cccs2)c2cn[nH]c2[nH]1 | 25.5 µM (inactive) | 27.9 µM (inactive) | 31.9 µM (inactive) | – | 97.7 µM (inactive) | > 100 µM (inactive) | 28.1 µM (inactive) | 35.7 µM (inactive) | 20.2 µM (inactive) | 27.2 µM (inactive) | 0.134 µM (active) | 14.8 µM (inactive) | 19.5 µM | 0.238 µM (active) | 4.23 µM (inactive) | 76.4 µM (inactive) | 25.6 µM (inactive) | 33.4 µM (inactive) | 11.8 µM (inactive) | 25.4 µM (inactive)
COc1cc2c(cc1O)-c1c(OC)c(O)cc3c1C(C2)N(C)CC3 (configuration not stated) | > 100 µM (inactive) | > 100 µM (inactive) | > 100 µM (inactive) | > 100 µM (inactive) | > 100 µM (inactive) | > 100 µM (inactive) | > 100 µM (inactive) | > 100 µM (inactive) | > 100 µM (inactive) | > 100 µM (inactive) | > 100 µM (inactive) | > 100 µM (inactive) | > 100 µM | > 100 µM (inactive) | > 100 µM (inactive) | > 100 µM (inactive) | > 100 µM (inactive) | > 100 µM (inactive) | > 100 µM (inactive) | > 100 µM (inactive)
CCOC(=O)/C=C/CC(C)(C)CCOC(C)=O | > 10 µM (inactive) | > 10 µM (inactive) | – | > 10 µM (inactive) | > 10 µM (inactive) | > 10 µM (inactive) | > 10 µM (inactive) | > 10 µM (inactive) | > 10 µM (inactive) | > 10 µM (inactive) | > 10 µM (inactive) | > 10 µM (inactive) | > 10 µM | > 10 µM (inactive) | > 10 µM (inactive) | > 10 µM (inactive) | > 10 µM (inactive) | > 10 µM (inactive) | > 10 µM (inactive) | > 10 µM (inactive)
C(=N\NC1=NCCN1)/c1ccc(-c2cn3cc(/C=N/NC4=NCCN4)ccc3n2)cc1 | 7.74 µM (inactive) | 19 µM (inactive) | > 50.4 µM (inactive) | 2.74 µM (inactive) | > 100 µM (inactive) | > 100 µM (inactive) | 14.6 µM (inactive) | 30.3 µM (inactive) | 15 µM (inactive) | > 66.2 µM (inactive) | 3.76 µM (inactive) | 22 µM (inactive) | > 68.4 µM | 10.2 µM (inactive) | 2.2 µM (inactive) | 4.48 µM (inactive) | 37.5 µM (inactive) | > 32.7 µM (inactive) | 3.33 µM (inactive) | 40.6 µM (inactive)
CCc1n[nH]c(=O)n1N1C(=O)CCC1=O | > 100 µM (inactive) | > 100 µM (inactive) | > 100 µM (inactive) | > 100 µM (inactive) | > 100 µM (inactive) | > 100 µM (inactive) | > 100 µM (inactive) | > 100 µM (inactive) | > 100 µM (inactive) | > 100 µM (inactive) | > 100 µM (inactive) | > 100 µM (inactive) | > 100 µM | > 100 µM (inactive) | > 100 µM (inactive) | – | > 100 µM (inactive) | > 100 µM (inactive) | > 100 µM (inactive) | > 100 µM (inactive)
N#CC(C/C=C/c1ccccc1)NNC(=O)c1c(Cl)c(Cl)c(Cl)c(Cl)c1-c1nc2cc(C(=O)c3ccccc3)ccc2[nH]1 (configuration not stated) | 13.5 µM (inactive) | 16.4 µM (inactive) | 15.1 µM (inactive) | 5.79 µM (inactive) | 17.4 µM (inactive) | 16.9 µM (inactive) | 16.1 µM (inactive) | 25.5 µM (inactive) | 18.2 µM (inactive) | 12.9 µM (inactive) | – | 31.4 µM (inactive) | 11.6 µM | 18.1 µM (inactive) | 7.94 µM (inactive) | 7.57 µM (inactive) | 16.7 µM (inactive) | 14.9 µM (inactive) | 6.58 µM (inactive) | –
CC(C)[C@H]1C(=O)O[B@-](F)(c2ccccc2)/[N+]1=C\N(C)C | > 100 µM (inactive) | > 100 µM (inactive) | > 100 µM (inactive) | > 100 µM (inactive) | > 100 µM (inactive) | > 100 µM (inactive) | > 100 µM (inactive) | > 100 µM (inactive) | > 100 µM (inactive) | > 100 µM (inactive) | > 100 µM (inactive) | – | > 100 µM | > 100 µM (inactive) | > 100 µM (inactive) | > 100 µM (inactive) | > 100 µM (inactive) | > 100 µM (inactive) | > 100 µM (inactive) | > 100 µM (inactive)
O=C=NCCCCCCN1C(=O)N2C(c3ccccc3)N(CCCCCCN=C=O)C(=O)N2C1c1ccccc1 (configuration not stated) | > 100 µM (inactive) | > 100 µM (inactive) | > 100 µM (inactive) | 79.3 µM (inactive) | > 100 µM (inactive) | – | > 100 µM (inactive) | > 100 µM (inactive) | > 100 µM (inactive) | > 100 µM (inactive) | > 100 µM (inactive) | > 100 µM (inactive) | > 100 µM | > 100 µM (inactive) | > 100 µM (inactive) | > 100 µM (inactive) | > 100 µM (inactive) | > 100 µM (inactive) | 65.2 µM (inactive) | –
